A short description of this test: In vitro anti-inflammatory activity assessed as inhibition of heat-induced albumin denaturtion incubated for 15 min followed by heating measured after 10 min. The test is classed as functional.

For `COc1ccc(C2C(C(=O)Nc3ccccc3)=C(C)N=c3o/c(=C\c4ccc([N+](=O)[O-])cc4)c(=O)n32)cc1` (configuration not stated), the IC50 is 272.584 ppm.

`COc1ccc(C2C(C(=O)Nc3ccccc3)=C(C)N=c3o/c(=C\c4ccc(Cl)cc4)c(=O)n32)cc1` (configuration not stated): the IC50 came out at 236.954 ppm.

`COc1ccc(/C=c2\oc3n(c2=O)C(c2ccccc2)C(C(=O)Nc2ccccc2)=C(C)N=3)cc1` (configuration not stated): the IC50 amounted to 304.179 ppm.

In the case of `CC1=C(C(=O)Nc2ccccc2)C(c2ccc(Cl)cc2)n2c(s/c(=C\c3ccc(N(C)C)cc3)c2=O)=N1` (configuration not stated), the IC50 is listed as 309.862 ppm.

For the molecule `COc1ccc(/C=c2\sc3n(c2=O)C(c2ccccc2)C(C(=O)Nc2ccccc2)=C(C)N=3)cc1` (configuration not stated), the IC50 is 291.257 ppm.

As to `CC1=C(C(=O)Nc2ccccc2)C(c2ccc([N+](=O)[O-])cc2)n2c(s/c(=C\c3ccc(Cl)cc3)c2=O)=N1` (configuration not stated), the IC50 is recorded as 194.611 ppm.

On to `CC1=C(C(=O)Nc2ccccc2)C(c2ccccc2)n2c(s/c(=C\c3ccc(N(C)C)cc3)c2=O)=N1` (configuration not stated), for which the IC50 came out at 316.686 ppm.

For the molecule `CC1=C(C(=O)Nc2ccccc2)C(c2ccccc2)n2c(s/c(=C\c3ccc([N+](=O)[O-])cc3)c2=O)=N1` (configuration not stated), the IC50 is reported as 253.376 ppm.

In the case of `O=C([O-])Cc1ccccc1Nc1c(Cl)cccc1Cl.[Na+]` [DICLOFENAC SODIUM], the IC50 was found to be 188.24 ppm.

Regarding `CC1=C(C(=O)Nc2ccccc2)C(c2ccc([N+](=O)[O-])cc2)n2c(o/c(=C\c3ccc(N(C)C)cc3)c2=O)=N1` (configuration not stated), the IC50 amounted to 339.35 ppm.

Take `CC1=C(C(=O)Nc2ccccc2)C(c2ccccc2)n2c(o/c(=C\c3ccc(Cl)cc3)c2=O)=N1` (configuration not stated): the IC50 is reported as 261.464 ppm.

For the molecule `CC1=C(C(=O)Nc2ccccc2)C(c2ccc(Cl)cc2)n2c(s/c(=C\c3ccc([N+](=O)[O-])cc3)c2=O)=N1` (configuration not stated), the IC50 is 190.42 ppm.

Turning to `CC1=C(C(=O)Nc2ccccc2)C(c2ccccc2)n2c(o/c(=C\c3ccc(N(C)C)cc3)c2=O)=N1` (configuration not stated), the IC50 is given as 330.312 ppm.

For the molecule `CC1=C(C(=O)Nc2ccccc2)C(c2ccc(Cl)cc2)n2c(o/c(=C\c3ccc([N+](=O)[O-])cc3)c2=O)=N1` (configuration not stated), the IC50 was determined as 192.486 ppm.

For the molecule `COc1ccc(/C=c2\sc3n(c2=O)C(c2ccc([N+](=O)[O-])cc2)C(C(=O)Nc2ccccc2)=C(C)N=3)cc1` (configuration not stated), the IC50 is 250.38 ppm.

As for `COc1ccc(C2C(C(=O)Nc3ccccc3)=C(C)N=c3o/c(=C\c4ccc(N(C)C)cc4)c(=O)n32)cc1` (configuration not stated), the IC50 was 314.544 ppm.

Consider `COc1ccc(C2C(C(=O)Nc3ccccc3)=C(C)N=c3s/c(=C\c4ccc([N+](=O)[O-])cc4)c(=O)n32)cc1` (configuration not stated), for which the IC50 was determined as 254.99 ppm.

For the molecule `CC1=C(C(=O)Nc2ccccc2)C(c2ccc([N+](=O)[O-])cc2)n2c(s/c(=C\c3ccc(N(C)C)cc3)c2=O)=N1` (configuration not stated), the IC50 was 336.75 ppm.

As to `COc1ccc(C2C(C(=O)Nc3ccccc3)=C(C)N=c3s/c(=C\c4ccc(N(C)C)cc4)c(=O)n32)cc1` (configuration not stated), the IC50 turned out to be 301.677 ppm.

As for `COc1ccc(C2C(C(=O)Nc3ccccc3)=C(C)N=c3s/c(=C\c4ccc(Cl)cc4)c(=O)n32)cc1` (configuration not stated), the IC50 came out at 210.874 ppm.

In the case of `COc1ccc(/C=c2\oc3n(c2=O)C(c2ccc([N+](=O)[O-])cc2)C(C(=O)Nc2ccccc2)=C(C)N=3)cc1` (configuration not stated), the IC50 was found to be 259.104 ppm.

Turning to `COc1ccc(/C=c2\oc3n(c2=O)C(c2ccc(Cl)cc2)C(C(=O)Nc2ccccc2)=C(C)N=3)cc1` (configuration not stated), the IC50 came out at 242.144 ppm.

Take `CC1=C(C(=O)Nc2ccccc2)C(c2ccc(Cl)cc2)n2c(o/c(=C\c3ccc(N(C)C)cc3)c2=O)=N1` (configuration not stated): the IC50 came to 319.524 ppm.

For the molecule `COc1ccc(/C=c2\sc3n(c2=O)C(c2ccc(Cl)cc2)C(C(=O)Nc2ccccc2)=C(C)N=3)cc1` (configuration not stated), the IC50 was found to be 232.597 ppm.

In the case of `CC1=C(C(=O)Nc2ccccc2)C(c2ccccc2)n2c(o/c(=C\c3ccc([N+](=O)[O-])cc3)c2=O)=N1` (configuration not stated), the IC50 is given as 283.525 ppm.

Consider `CC1=C(C(=O)Nc2ccccc2)C(c2ccc([N+](=O)[O-])cc2)n2c(o/c(=C\c3ccc(Cl)cc3)c2=O)=N1` (configuration not stated), for which the IC50 is recorded as 196.05 ppm.

As for `CC1=C(C(=O)Nc2ccccc2)C(c2ccccc2)n2c(s/c(=C\c3ccc(Cl)cc3)c2=O)=N1` (configuration not stated), the IC50 was 226.318 ppm.

(Values after ChEMBL document CHEMBL3045975, “In vitro anti-inflammatory potential and QSAR analysis of oxazolo/thiazolo pyrimidine derivatives” (Med Chem Res, 2013).)
